≈ marks a conversion by molar mass, not a printed value.
Assays:
[1] = Rate of release and concentration of active ingredient from sealed cellulose film bags into deionized water, followed by ultraviolet spectroscopy; assay type: physicochemical; settings: 1.28 g of 7% composition on Celite 545 in sealed 3-mil cellulose bag, 800 ml deionized water, complete release = 112 ppm
Excerpt: There was sealed in bags of 3-mil cellulose film (3.5 in.^2 surface area) 1.28 g. of each of the three compositions prepared in Example 1 containing compounds A, B, and C, respectively. For comparison, 1.28 g. of a 7% active ingredient solid composition of Kathon®886 (a 3:1 weight ratio blend of 5-chloro-2-methyl-3-isothiazolone and 2-methyl-3-isothiazolone with 15 weight % of Mg(NO3)2 and 9 weight % of MgCl2 in aqueous solution containing 14% active ingredient available from the Rohm and Haas Company) absorbed on Celite®545 was sealed in a bag of 3-mil cellulose film (3.5 in.^2 surface area). The rate of release and concentration of active ingredient from the sealed bags into 800 ml. of deionized water was followed by ultraviolet spectroscopy. Complete release of active ingredient from each sample would give 112 ppm.

[2] = Release of active ingredient from solid Celite 545 composition stirred in deionized water, followed by ultraviolet spectroscopy; assay type: physicochemical; settings: for time required to reach a saturated solution: solid composition on Celite 545 in deionized water; for Concentration in Solution at Elapsed Time: 1.28 g of 7% composition on Celite 545 in 800 ml deionized water, total release = 112 ppm
Protocol: To 13.28 g. of Celite®545 in each of three glass bottles was added 1 g. of the following isothiazolones in 20 ml. of methanol:
Each mixture was then stirred by hand with a spatula until it appeared to be uniformly mixed and free-flowing. Air drying, to remove methanol, affords solid product, 14.28 g., containing 7 weight % of active ingredient.
1.28 g. of each of the resulting solid microbiocidal compositions was stirred in 800 ml. of deionized water. The release of active ingredient was followed by analysis of the supernatant water by ultraviolet spectroscopy. Total release of active ingredient would give 112 ppm.

physchem = settings: water
[3] = Water solubility of the isothiazolones; settings: for solubility: water

Structure (SMILES) | Concentration/Rate of Release ([1]; 1 day) [ppm] | Concentration/Rate of Release ([1]; 5 days) [ppm] | time required to reach a saturated solution [2] | solubility (physchem) [µg/mL] | Concentration in Solution at Elapsed Time ([2]; 0.75 hr.) [ppm] | Concentration in Solution at Elapsed Time ([2]; 3.0 hr.) [ppm] | Concentration in Solution at Elapsed Time ([2]; 66.0 hr.) [ppm] | solubility ([3]; Water Solubility, Example 1 table) [µg/mL] | solubility ([3]; Water Solubility, Example 3 table head) [µg/mL] | Concentration in Solution at Elapsed Time ([2]; 23.0 hr.) [ppm] | Water Solubility ([3]; Example 3 table head) [ppm] | solubility [3] [µg/mL]
CCCCCCCCn1sccc1=O [A, 2-octyl-3-isothiazolone] | 27 | 82 | less than 1 hours | 500 (≈ 2340 µM) | – | – | – | – | – | – | – | –
O=c1c(Cl)c(Cl)sn1C1CCCCC1 [B, 4,5-dichloro-2-cyclohexyl-3-isothiazolone] | 5 | 11 | 1 to 3 h | – | 27 | 39 | 39 | 40 (≈ 159 µM) | 42 (≈ 167 µM) | – | – | –
CCCCCCCCn1sc(Cl)c(Cl)c1=O [Compound C, 4,5-dichloro-2-octyl-3-isothiazolone] | 0.4 | 1.7 | – | – | 7 | 10 | 14 | – | – | 14 | 14 | 14 (≈ 49.6 µM)
